Results taken from patent publication US20050130287A1, “Purifying process of soluble proteins of the l.obliqua bristles through prothrombin activation: process for a partial determination of the amino acids sequence of the prothrombin activator; process for determining the prothrombin activation of fraction II, n-terminal and internal fragments sequences” (priority 2002, published 2005).

Target: T1, Lopap (Lonomia obliqua, UniProt Q5ECE3)
T1 construct: from tissue; host or cells: Lonomia obliqua caterpillar bristles
T1 sequence (Q5ECE3 17-201): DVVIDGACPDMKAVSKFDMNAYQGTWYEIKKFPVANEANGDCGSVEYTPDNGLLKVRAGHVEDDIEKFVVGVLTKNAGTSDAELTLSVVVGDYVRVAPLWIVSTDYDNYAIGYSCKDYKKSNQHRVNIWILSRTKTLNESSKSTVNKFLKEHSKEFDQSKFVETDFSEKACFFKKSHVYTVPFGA
Assay: Lopap inhibition by PMSF or E-64 (S-2238)
Format: biochemical

| SMILES | effect on Lopap activity (10 mM PMSF, Lopap 75 nM) | effect on Lopap activity (3,2 mM E-64, Lopap 75 nM) |
| --- | --- | --- |
| O=S(=O)(F)Cc1ccccc1 [PMSF, phenylmethylsulphonil fluoride] | completely annulled | – |
| CC(C)C[C@H](NC(=O)[C@H]1O[C@@H]1C(=O)O)C(=O)NCCCCN=C(N)N (relative stereo) [E-64, trans-epoxysuccinil-L-leucilamide-(4-guanidine-butane)] | – | did not affected it |
